The subject of one assay is Splenocytes. Kind of assay: Test of production of cytokines by glycolipid derivative (in vitro), mouse splenocytes, ELISA. Particulars: for IFN-γ / IL-4: glycolipid 100 ng/ml, 72 hours culture, culture supernatant, ELISA. It is filed as cell-based, C57BL/6 mice. The protocol: Test of Production of Cytokines by Glycolipid Derivative (In Vitro)
Splenocytes were prepared from the spleens of C57BL/6 mice (6 to 8 weeks old, female) and suspended in a RPMI1640 medium (purchased by Nakarai) containing 10% fetal bovine serum (purchased by GIBCO), 5×10-^5M 2-mercaptoethanol (purchased by GIBCO), 1 mM pyruvate (purchased by SIGMA), and 25 mM HEPE (purchased by SIGMA). These were seeded on a 96-well flat bottom plate (purchased by IWAKI) in an amount of 5×10e5 cells/well and a glycolipid derivative was added to each at a final concentration of 100 ng/ml. The results were cultured at 37° C. in the presence of 5% CO2 for 72 hours, then the culture supernatent was collected. The concentration of the IL-4 and IFN-γ in the culture supernatent were measured by ELISA (BD Pharmingen EIA Kit) (Table 2).

Assay [1] deals with mouse experimental autoimmunological encephalomyelitis (EAE) model. Particulars: oral administration; cited from earlier work.
The test system of another assay is NKT cells. To be noted: cited from earlier work.

On to `CCCCCCCCCCCCCCCCCCCCCCC(=O)N[C@@H](COC1OC(CO)C(O)C(O)C1O)[C@H](O)[C@H](O)CCCC` (stereo partly drawn) [Compound 110, 2-tricosanoylamino-1-O-α-D-galactopyranosyl-D-ribo-1,3,4-octanetriol], for which, in the assay with Splenocytes, the “IFN-γ” value amounted to 10614 pg/mL and the “IL-4” value amounted to 226 pg/mL.

In the case of `CCCCCCCCCCCCCCCCCCCCCC(=O)N[C@@H](COC1OC(CO)C(O)C(O)C1O)[C@H](O)[C@H](O)CCC` (stereo partly drawn) [Compound 111, 2-docasanoylamino-1-O-α-D-galactopyranosyl-D-ribo-1,3,4-heptanetriol], in the assay on Splenocytes, the “IFN-γ” value worked out at 7413 pg/mL and the “IL-4” value is 256 pg/mL.

With `CCCCCCCCCCCCCCCCCCCCCCC(=O)N[C@@H](COC1OC(CO)C(O)C(O)C1O)[C@H](O)[C@H](O)CC` (stereo partly drawn) [Compound 112, 2-tricosanoylamino-1-O-α-D-galactopyranosyl-D-ribo-1,3,4-hexanetriol], in the assay on Splenocytes, the “IFN-γ” value amounted to 5832 pg/mL and the “IL-4” value turned out to be 237 pg/mL.

With `CCCCCCCCCCCCCCCCCCCCCC(=O)N[C@@H](COC1OC(CO)C(O)C(O)C1O)[C@H](O)[C@H](O)CCCCCC` (stereo partly drawn) [Compound 113, 2-docasanoylamino-1-O-α-D-galactopyranosyl-D-ribo-1,3,4-decanetriol], in the assay with Splenocytes, the “IFN-γ” value was determined as 7967 pg/mL and the “IL-4” value is 251 pg/mL.

Regarding `CCCCCCCCCCCCCCCCCCCCCCC(=O)N[C@@H](CO[C@H]1O[C@H](CO)[C@H](O)[C@H](O)[C@H]1O)[C@H](O)[C@H](O)CCCCCC` [Compound 114, 2-tricosanoylamino-1-O-α-D-galactopyranosyl-D-ribo-1,3,4-decanetriol], in the assay with Splenocytes, the “IFN-γ” value came to 8067 pg/mL and the “IL-4” value amounted to 225 pg/mL.

As to `CCCCCCCCCCCCCCCCCCCCCCCC(=O)N[C@@H](COC1OC(CO)C(O)C(O)C1O)[C@H](O)[C@H](O)CCc1ccccc1` (stereo partly drawn) [Compound 115, 6-phenyl-2-tetracosanoylamino-1-O-α-D-galactopyranosyl-D-ribo-1,3,4-hexanetriol], in the assay on Splenocytes, the “IFN-γ” value is 2481 pg/mL and the “IL-4” value stood at 137 pg/mL.

Turning to `CCCCCCCCCCCCCCCCCCCCCCCC(=O)N[C@@H](COC1OC(CO)C(O)C(O)C1O)[C@H](O)[C@H](O)CC1CCCC1` (stereo partly drawn) [Compound 116, 5-cyclopentyl-2-tetracosanoylamino-1-O-α-D-galactopyranosyl-D-ribo-1,3,4-pentanetriol], in the assay on Splenocytes, the “IFN-γ” value is 5268 pg/mL and the “IL-4” value is 226 pg/mL.

As to `CCCCCCCCCCCCCCCCCCCCCCCC(=O)N[C@@H](COC1OC(CO)C(O)C(O)C1O)[C@H](O)[C@H](O)Cc1ccc(C)cc1` (stereo partly drawn) [Compound 117, 5-(4-methylphenyl)-2-tetracosanoylamino-1-O-α-D-galactopyranosyl-D-ribo-1,3,4-pentanetriol], in the assay on Splenocytes, the “IFN-γ” value came out at 5485 pg/mL and the “IL-4” value is 181 pg/mL.

Consider `CCCCCCCCCCCCCCOc1ccc(CCCCC(=O)N[C@@H](COC2OC(CO)C(O)C(O)C2O)[C@H](O)[C@H](O)CCCCC)cc1` (some centres unmarked) [Compound 127], for which, in the assay on Splenocytes, the “IFN-γ” value came to 2506 pg/mL and the “IL-4” value amounted to 159 pg/mL.

On to `CCCCCCCCCCCCCCCCCCCCCCCC(=O)N[C@@H](CO[C@H]1O[C@H](CO)[C@H](O)[C@H](O)[C@H]1O)[C@H](O)[C@H](O)CCCCC.O` [Compound 129, 2-tetracosanoylamino-1-O-α-D-galactopyranosyl-D-ribo-1,3,4-nonanetriol 1-hydrate], for which, in the assay with Splenocytes, the “IFN-γ” value worked out at 7179 pg/mL and the “IL-4” value came out at 232 pg/mL.

For `CCCCCCCCCCCCCCCCCCCCCCCC(=O)N[C@@H](COC1OC(CO)C(O)C(O)C1O)[C@H](O)[C@H](O)CCCCC` (some centres unmarked) [OCH], the “Effect in EAE model (in words)” value in assay [1] is “effected in oral administration”. Further, in the assay with NKT cells, the “Cytokines produced by NKT cells (in words)” value was “more selectively promotes the production of IL-4”.

With `CCCCCCCCCCCCCCCCCCCCCCCCCC(=O)N[C@@H](CO[C@H]1O[C@H](CO)[C@H](O)[C@H](O)[C@H]1O)[C@H](O)[C@H](O)CCCCCCCCCCCCCC` [α-Galcer, (2S,3S,4R)-1-O-(α-D-galactosyl)-2-(N-hexacosanoylamino)-1,3,4-octadecanetriol, reference compound], the “Cytokines produced by NKT cells (in words)” value in the assay with NKT cells is “causes NKT cells to produce IFN-γ and IL-4”. For the same molecule, the “IFN-γ producing activity (in words)” value in the assay on Splenocytes (compared with α-GalCer, Table 2) is “IFN-γ was produced remarkably dominantly”. Besides, in the assay on Splenocytes, the “IFN-γ” value is 21900 pg/mL and the “IL-4” value worked out at 201 pg/mL.

The record behind these values is patent US8034908B2, “Glycolipids and synthetic method thereof as well as their synthetic intermediates, and synthetic method thereof” (Japan as Represented by President of National Center of …, priority 2003, dated 2011).
